# Laboratory results reported in PMC3948331 (Future medicinal chemistry, 2013).
# Tests used:
# [1] = system: guinea pigs; settings: guinea pigs treated with Bnz; cited from earlier work
# [2] = system: S. typhimurium strains; settings: cited from earlier work
# [3] = system: T. cruzi, strain Tulahuen C4 amastigotes; experiment: In vitro activity against T. cruzi intracellular amastigotes in L6 host cells; assay type: cell-based, Trypanosoma cruzi; settings: for IC50: Trypanosoma cruzi, TULAHUEN, L6, read-out: T. cruzi IC-50; for Selectivity: IC50 in L6 cells/IC50 in T. cruzi, compounds 9–13
# [4] = system: Balb/c mice; experiment: Apparent toxicity in treated T. cruzi-infected mice; assay type: in vivo; settings: 30 mg/kg/day i.p., 5- and 10-day treatment
# [5] = system: transgenic T. cruzi Y strain expressing firefly luciferase; experiment: In vivo anti-T. cruzi fast luminescence assay in infected Balb/c mice; parameters: species or system Trypanosoma cruzi; settings: for in vivo antichagasic activity compared with Bnz: 10-day treatment, Bnz 15 mg/kg/day
# [6] = Cytotoxicity assessment in the host L6 cells; assay type: cell-based; settings: rat, L6 cells (rat skeletal myoblasts)
# [7] = Microsomal stability screen; assay type: in vitro ADME; settings: mouse, microsomes, 1 h, 1 µM, pH 7.4
# [8] = Plasma stability screen; assay type: in vitro ADME, mouse; settings: 5 µM
# [9] = Caco-2 monolayer permeability; settings: human
# [10] = in vitro; settings: human, Caco-2
# [11] = logD at pH 6; threshold for high permeability; cited from earlier work
# [12] = system: zebrafish embryos; experiment: Toxicity studies in zebrafish embryos; settings: incubation of embryos; data not shown
# [13] = i.p., 5–10 days treatment at the doses of Figure 1, more than 80 and up to 100%
smiles,measurement,setting,value
"O=C(Cn1ccnc1[N+](=O)[O-])NCc1ccccc1 [Bnz, benznidazole]",mutagenic derivatives in serum and urine detectable by the Ames test,[1],not metabolized by the mammalian host into stable mutagenic derivatives
same,concentrations showing significant mutagenicity,[2],< 62 µg/mL
same,IC50,[3],1430 nM
"Cl.O=[N+]([O-])c1ncn(CCCNCCc2cccc(C(F)(F)F)c2)n1 [Compound 9, [3-(3-nitro-1H-1,2,4-triazol-1-yl)propyl] ({2-[3-(trifluoromethyl)phenyl]ethyl})amine hydrochloride]",toxicity in treated mice,[4],without any sign of toxicity
same,drop of parasite index,"[5]; 30 mg/kg/day i.p., after 5-day treatment",about 88%
same,drop of parasite index,"[5]; 30 mg/kg/day i.p., after 10-day treatment",~85%
same,drop of parasite index,[5]; [13],more than 80%
same,Selectivity,[3],116
same,IC50,[3],775 nM
same,IC50,[6],90.1 µM
"O=[N+]([O-])c1ncn(CCCNc2nc3ccc(Cl)cc3s2)n1 [Compound 10, 6-chloro-N-[3-(3-nitro-1H-1,2,4-triazol-1-yl)propyl]-1,3-benzothiazol-2-amine]",Mean remaining parent comp (+)NADPH,[7],1.0%
same,Mean remaining parent comp (−)NADPH,[7],108%
same,in vivo antichagasic activity,"[5]; 10 mg/kg/day i.p., 5- or 10-day treatment",failed to demonstrate in vivo antichagasic activity
same,Selectivity,[3],1725
same,IC50,[3],59 nM
same,Mean remaining parent comp,"[8]; mouse plasma, 60 min, 37°C",87.3%
same,IC50,[6],102 µM
"O=[N+]([O-])c1ncn(CCCCNS(=O)(=O)c2ccc(Cl)s2)n1 [Compound 11, 5-chloro-N-[4-(3-nitro-1H-1,2,4-triazol-1-yl)butyl]thiophene-2-sulfonamide]",parasite signal,"[5]; 15 mg/kg/day i.p., after 10 days of treatment, greater activity than Bnz",no detectable parasite signal
same,drop of parasite index,[5]; [13],more than 80%
same,Selectivity,[3],277.5
same,IC50,[3],462 nM
same,IC50,[6],128 µM
"O=[N+]([O-])c1ncn(CCCCNS(=O)(=O)c2cc(Cl)c(Cl)s2)n1 [Compound 12, 4,5-dichloro-N-[4-(3-nitro-1H-1,2,4-triazol-1-yl)butyl]thiophene-2-sulfonamide]",in vivo antichagasic activity compared with Bnz,[5]; 15 mg/kg/day i.p.,failed to perform better than Bnz
same,Selectivity,[3],261.1
same,IC50,[3],373 nM
same,IC50,[6],97.3 µM
"O=C(NCCCCn1cnc([N+](=O)[O-])n1)c1nc2ccccc2s1 [Compound 13, N-[4-(3-nitro-1H-1,2,4-triazol-1-yl)butyl]-1,3-benzothiazole-2-carboxamide]",in vivo antichagasic activity compared with Bnz,[5]; 15 mg/kg/day i.p.,failed to perform better than Bnz
same,Selectivity,[3],364.4
same,IC50,[3],422 nM
same,IC50,[6],154 µM
CC(C)[N+](C)(CCOC(=O)C1c2ccccc2Oc2ccccc21)C(C)C [Propantheline],Mean remaining parent comp,"[8]; mouse plasma, 60 min, 37°C",30.4%
CNC(=C[N+](=O)[O-])NCCSCc1ccc(CN(C)C)o1 [Ranitidine],"Papp A→B at 2 h, 10 µM",[9],0.5 ×10⁻⁶ cm/s
CC(=O)CC(c1ccccc1)c1c(O)c2ccccc2oc1=O (stereo not shown) [Warfarin],Mean remaining parent comp (+)NADPH,[7],83.9%
same,Mean remaining parent comp,"[8]; mouse, plasma, 1 h",97.8%
same,"Papp A→B at 2 h, 10 µM",[10],44.2 ×10⁻⁶ cm/s
CC(CCc1ccccc1)NCC(O)c1ccc(O)c(C(N)=O)c1 (stereo not shown) [labetalol],logD6,[11],−0.42
CC1CS(=O)(=O)CCN1/N=C/c1ccc([N+](=O)[O-])o1 (stereo not shown) [nifurtimox],effect on zebrafish embryos' development,[12],"weakened heart beat, pericardial oedema or death"
